{
  "source": "paper PMC8966651",
  "about": "“PKPD Modeling of the Inoculum Effect of Acinetobacter baumannii on Polymyxin B in vivo” (Frontiers in Pharmacology, 2022)",
  "key": {"[1]": {"assay": "PMB pharmacokinetics after a single subcutaneous dose in neutropenic thigh-infected mice (two-compartment model)", "type": "in vivo", "settings": "for Tmax: neutropenic mice infected with 10^6 CFU/thigh, n = 3 per time point, read-out: time to peak (Tmax)", "protocol": "Animal experiments were carried out according to the EC Directive 2010/63/EU. They were approved by the local ethics committee (COMETHEA) and registered by the French Ministry of Higher Education and Research (approval numbers: 2019022216097190 and 2017072415099072). Five-week-old male Swiss RjOrl mice (n = 296) weighing 34 ± 2 g (mean ± standard deviation [SD]) were obtained from Janvier Labs (Saint-Berthevin, France). All animals were acclimatized in ventilated racks in a temperature-regulated environment with a 12 h light-dark cycle, with free access to food and water for a minimum of 5 days before the beginning of the experiment. Neutropenia was induced by intraperitoneal administrations of cyclophosphamide at 150 and 100 mg/kg, 4 days and 1 day prior to experimental infection, respectively ([Landersdorfer et al., 2018]). Thigh infection was induced by intramuscular administration of 0.1 ml of a bacterial suspension of 10^6, 10^7 or 10^8 CFU/ml (corresponding to 10^5, 10^6 and 10^7 CFU/thigh, respectively), into one of the posterior thigh muscles. Thus, three groups of mice were distinguished according to the inoculum injected (n = 76, 146 and 74 for 10^5, 10^6 and 10^7 CFU/thigh, respectively) Each group was divided into two subgroups: treated (n = 48, 116 and 45 for 10^5, 10^6 and 10^7 CFU/thigh, respectively) and control mice (n = 28, 30 and 29 for 10^5, 10^6 and 10^7 CFU/thigh, respectively).\nTwo hours after bacterial inoculation, mice received either a single subcutaneous administration of PMB (1, 15 or 40 mg/kg for mice infected with 10^6 and 10^7 CFU/thigh, and 15 or 40 mg/kg for mice infected with 10^5 CFU/thigh), or a subcutaneous administration of saline solution (control group).\nThe PK of PMB was determined in neutropenic mice infected with the bacterial inoculum size of 10^6 CFU/thigh (n = 56). Mice were anesthetized by isoflurane (AbbVie, Rungis, France) inhalation (3%) for 5 min at each sampling time. Blood samples were collected by intracardiac puncture into heparinized tubes up to 24 h after PMB administration for a total of 7 time points per dose level (n = 3 animals per time point). Plasma was separated from the whole blood after centrifugation at 4,000 rpm for 10 min at 4°C and divided into two samples. The first sample was used to determine total PMB concentrations and the second one (0.15 ml) was ultrafiltered (4000 rpm for 30 min at room temperature) using Centrifree® ultrafiltration devices from Millipore (Merck KGaA) to determine unbound PMB concentrations and consequently protein binding. The non-specific binding of PMB to the membrane of the Centrifree® ultrafiltration devices ([Sader et al., 2012]) was determined by ultrafiltration of PMB solutions in phosphate buffer (pH7.2) at concentrations ranging from 0.2 to 7.5 mg/L and was used to correct ultrafiltrate concentrations. Plasma samples and ultrafiltrates were stored at −20°C until further analysis. Total and unbound PMB concentrations were determined by a liquid chromatography tandem mass spectrometry (LS-MS/MS) method (Supplemental Material).\nA PKPD model was developed in two steps to quantify the exposure-effect relationship of PMB in infected mice. First, time courses of total and unbound PMB concentrations were modeled and then, PK parameters were fixed during development of the PD part of the PKPD model.\nDifferent structural models including one, two or three compartments, linear, nonlinear (Michaelis-Menten) or parallel linear/nonlinear elimination were evaluated to describe PK data. Models with linear and nonlinear absorption were also tested. Additive, proportional and exponential residual error models were explored.\nModel selection was based on objective function value (OFV) and goodness of fit (GOF) plots. When two models were nested, a decrease in OFV of at least 3.84 (chi square 1df p = 0.05) was needed to select the most complex model. […]"}, "[2]": {"settings": "SC, highest dose 32 mg/kg; ref Landersdorfer et al., 2018; cited from earlier work", "protocol": "These new study results can be compared with those previously obtained in relatively similar conditions, at least from PK standpoint ([Landersdorfer et al., 2018]). In both studies PMB was administered subcutaneously to neutropenic mice infected with K. pneumoniae ([Landersdorfer et al., 2018]) or A. baumannii, leading to saturable absorption rate. However although Landersdorfer et al. used a model with parallel linear and saturable absorption, an Emax model was sufficient to provide satisfactory fit of our data. Noticeably, while this nonlinear absorption was important to consider for PK and ..."}, "[3]": {"settings": "final PK model, estimate (%RSE)"}},
  "note": "Counter-ions that a name gives are not always drawn. Like-named read-outs stand apart in the source and are kept apart here. Bridge positions count the residues as written; N and C are the ends. Square brackets hold non-standard residues; d marks the D form. Peptide text beside a SMILES is read from it. * marks the point of attachment. X1 = CC[C@H](C)CCCCC(=O)*; Dab = NCC[C@H](N)C(=O)O",
  "data": [
    {"smiles": "CC[C@H](C)CCCCC(=O)N[C@@H](CCN)C(=O)N[C@H](C(=O)N[C@@H](CCN)C(=O)N[C@H]1CCNC(=O)[C@H]([C@@H](C)O)NC(=O)[C@H](CCN)NC(=O)[C@H](CCN)NC(=O)[C@H](CC(C)C)NC(=O)[C@@H](Cc2ccccc2)NC(=O)[C@H](CCN)NC1=O)[C@@H](C)O", "note": "[PMB, Polymyxin B sulfate] (X1-[Dab]T[Dab][Dab][Dab][dF]L[Dab][Dab]T; lactam 4-C)", "values": [
      {"measurement": "increase of total Cmax when dose increased from 1 to 40 mg/kg", "setting": "[1]; SC, plasma, infected mice", "value": 15, "unit": "fold"},
      {"measurement": "Maximum absorption rate", "setting": "[1]; final PK model, saturable SC absorption, estimate (%RSE), doses 1, 15, 40 mg/kg", "value": "14.7 (10.3) mg/h/kg"},
      {"measurement": "Amount in the subcutaneous compartment that produces 50% of the maximum absorption rate", "setting": "[1]; [3]", "value": "2.24 (41.4) mg/kg"},
      {"measurement": "Distribution volume of the central compartment", "setting": "[1]; [3]", "value": "0.740 (16.7) L/kg"},
      {"measurement": "Distribution volume of the peripheral compartment", "setting": "[1]; [3]", "value": "0.743 (16.4) L/kg"},
      {"measurement": "Intercompartmental clearance", "setting": "[1]; [3]", "value": "0.315 (27.3) L/h/kg"},
      {"measurement": "Cmax", "setting": "[1]; male, Swiss RjOrl, mouse, plasma, sc, 1 mg/kg, plasma, single SC dose 1 mg/kg, mean ± SD, infected mice 10^6 CFU/thigh, LC-MS/MS, SD, read-out: Total PMB peak concentration (Cmax)", "value": "920 ± 140", "unit": "ng/mL"},
      {"measurement": "Cmax", "setting": "[1]; male, Swiss RjOrl, mouse, plasma, sc, 40 mg/kg, plasma, single SC dose 40 mg/kg, mean ± SD, infected mice 10^6 CFU/thigh, LC-MS/MS, SD, read-out: Total PMB peak concentration (Cmax)", "value": "13800 ± 810", "unit": "ng/mL"},
      {"measurement": "Cmax", "setting": "[1]; male, Swiss RjOrl, mouse, plasma, sc, 40 mg/kg, this study, SC, highest dose 40 mg/kg, read-out: peak concentrations at the highest dose", "value": 15000, "unit": "ng/mL"},
      {"measurement": "CL/F", "setting": "[1]; male, Swiss RjOrl, mouse, plasma, sc, final PK model, linear elimination, estimate (%RSE), read-out: Clearance (converted)", "value": 7.28, "unit": "mL/min/kg"},
      {"measurement": "Tmax", "setting": "[1]; male, Swiss RjOrl, mouse, plasma, single SC dose 1 mg/kg, LC-MS/MS", "value": 0.5, "unit": "h"},
      {"measurement": "Tmax", "setting": "[1]; male, Swiss RjOrl, mouse, plasma, single SC dose 40 mg/kg, LC-MS/MS", "value": 2, "unit": "h"},
      {"measurement": "peak concentrations at the highest dose", "setting": "[2]", "value": "~20", "unit": "mg/L"}
    ]}
  ]
}
